Where “and” joins values, the source holds several entries; their conditions need not be identical. Equal entries are not always repeated. Entries after “also recorded” stand apart in the source; their conditions may differ. Where two headings read alike, the source gives them in different places.
Legend:
[1] = tested on: myocardial ischemia/reperfusion (MI/R) injury; parameters: species or system mice; conditions: mouse, in vivo
[2] = assay type: physicochemical; conditions: for H2S release under weak acidic pH: pH 5 and 6, PBS buffer; for H2S release under neutral and weak basic pH: pH 7.4 and 8, PBS buffer
[3] = Circulating free H2S level, gas chromatography and chemiluminescence; assay type: in vivo, mice; conditions: plasma, 15 minutes after administration, 50 μg/kg (p<0.05) or 100 μg/kg (p<0.001)
Description: FIG. 5. […] Blood was collected 15 minutes after the administration of JK-2. Circulating free H2S levels were measured from plasma samples using gas chromatography and chemiluminesence methods.

HeLa cells = test: H2S production in cells, WSP-5 fluorescent probe imaging; assay type: cell-based; conditions: 200 μM donor, 1 h
H9c2 cardiomyoblasts = test: Anoxia/reoxygenation (A/R)-induced cellular injury, CCK-8 cell viability; assay type: cell-based; conditions: for protection against A/R-induced cellular damage (cell viability): H9c2, 12, 25 and 50 μM for 1 h during anoxia, then reoxygenation
Description: FIG. 3B. […] During anoxia various concentrations of JK-1 and JK-2 were added into medium and incubated for 1 h, respectively. Then the cells underwent a reoxygenation process. After the treatments, the CCK-8 assay was performed to detect cell viability. Data was expressed as the mean±SEM. **P<0.01 vs the control group, #P<0.05, ##P<0.01 vs A/R alone group.
The cell counting kit (CCK)-8 was applied to measure the cell viability of HeLa cells cultured in 96-well plates. After the indicated cell treatment, 100 μL of CCK-8 solution at 1:10 dilution was added to each well and cells were incubated for a further 3 h at 37° C. Absorbance was measured at 450 nm with a microplate reader. The mean optical density (OD) of 4 wells in each group was used to calculate cell viability as follows: (experiments were performed in triplicate)
The effect of H2S as a cardioprotective agent against myocardial ischemia reperfusion (MI/R) injury is known in the art. The mechanisms include reducing oxidative stress, preserving mitochondrial function, decreasing myocardial inflammation, and improving angiogenesis. […] To establish the cellular model of MI/R injury, H9c2 cardiomyoblasts were exposed to anoxia/reoxygenation (A/R) treatment, together with increasing concentrations of H2O2 (100-400 μM). […] Since the median lethal concentration of H2O2 in H9c2 cells was approximately 400 μM, this concentration was used for our studies.
The protective effects of the disclosed compounds against A/R-induced cellular damage was examined. In these experiments, H9c2 cells were pretreated with JK-1 or JK-2 at various concentrations (12, 25 and 50 μM) for 1 h during anoxia. Cells then underwent a reoxygenation process, after which cell viability was analyzed.

[4] = tested on: myocardial ischemia/reperfusion (MI/R) injury; test: Circulating cardiac troponin I in MI/R murine model; conditions: 50 μg/kg (p<0.05) or 100 μg/kg (p<0.01), blood at 4 h of reperfusion
Description: Blood was collected at 4 hours of reperfusion, and circulating cardiac troponin I levels were measured.
Surgical occlusion of the left coronary artery (LCA), infarct size determination, and troponin I (TnI) measurements were performed as previously described. ^1C57BL6/J male mice (10-12 weeks of age) were anesthetized using pentobarbital (50 mg/kg) and ketamine (60 mg/kg) and maintained under anesthesia throughout the procedure with additional administration of pentobarbital (50 mg/kg). […] A hair removal compound was used to remove the hair on the chest of mice. The area was then cleaned using betadine and alcohol wipes alternating 3 times. The chest was opened with via a median sternotomy and the exposed ribs, muscle, and tissues were cauterized to prevent bleeding. The LCA was visualized using a dissection microscope with a fiber optic light ring, and using a 7-0 silk suture, a 3-5 mm piece of PE-10 tubing was secured over the LCA, occluding the artery. Mice were subjected to 45 min of myocardial ischemia followed by reperfusion. At the time of reperfusion, an injection of vehicle (saline), JK-1 (50 μg/kg and 100 μg/kg), or JK-2 (50 μg/kg and 100 μg/kg) was given i.c. The chest was closed in layers, closing the muscle layer first, then the skin. Mice were removed from ventilation once pedal reflex returned and it was determined that respiration was spontaneous. Mice were placed in a recovery cage and supplied with 100% O2 via a nose cone. Reperfusion was allowed for 24 h, and blood samples for TnI measurements were taken at 4 h after time of reperfusion.
Blood samples were collected via a tail vein at 4 h of reperfusion. Cardiac troponin I level was measured in serum using the Life Diagnostic high sensitivity mouse cardiac troponin I ELISA kit following the manufacturer's instructions.

[5] = tested on: TAC-induced heart failure; test: Transverse aortic constriction (TAC) heart failure model, echocardiography; assay type: in vivo, C57BL6/J mice; conditions: 100 μg/kg once daily i.p. from 3 weeks post-TAC, 14 weeks
Description: FIG. 7. Left ventricular dimensions at end-diastole (LVEDD) and at end-systole in millimeters (mm) at baseline and following heart failure in C57BL6/J mice. Mice were subjected to transverse aortic constriction (TAC) surgery to induce pressure overload hypertrophy and heart failure with reduced ejection fraction. LVEDD and LVESD were measured using high-resolution echocardiography at baseline and every 2 weeks thereafter for a period of 14 weeks. The H2S donor, (JK1) was administered starting at 3 weeks post-TAC at a dose of 100 μg/kg administered once daily via intraperitoneal injection. […] Following heart failure the heart dilates and this adverse remodeling response contributes to reduced cardiac function.
FIG. 8. Interventricular septum thickness measured at end-diastole (IVSd) and at end-systole (IVSs) in millimeters (mm) at baseline and following heart failure in C57BL6/J mice. Mice were subjected to transverse aortic constriction (TAC) surgery to induce pressure overload hypertrophy and heart failure with reduced ejection fraction. IVSd and IVSs were measured using high-resolution echocardiography at baseline and every 2 weeks thereafter for a period of 14 weeks. The H2S donor, (JK1) was administered starting at 3 weeks post-TAC at a dose of 100 μg/kg administered once daily via intraperitoneal injection. […] Myocardial wall thinning is a significant pathological component of heart failure.
(§1) FIG. 9. Left ventricular (LV) posterior wall thickness (PW) measured at end-diastole (d) and at end-systole (s) in millimeters (mm) at baseline and following heart failure in C57BL6/J mice. Mice were subjected to transverse aortic constriction (TAC) surgery to induce pressure overload hypertrophy and heart failure with reduced ejection fraction LVPWd and LVPWs were measured using high-resolution echocardiography at baseline and every 2 weeks thereafter for a period of 14 weeks. The H2S donor, (JK1) was administered starting at 3 weeks post-TAC at a dose of 100 μg/kg administered once daily via intraperitoneal injection.
as §1, with “10.” for “9.”, “ejection fraction (EF)” for “posterior wall thickness (PW) measured at end-diastole (d)”, “fractional shortening (FS)” for “at end-systole (s) in millimeters (mm)”, “fraction. LVEF (%)” for “fraction LVPWd”, “LVFS (%)” for “LVPWs”, “injection. LVEF and LVFS are clinically utilized measures of cardiac function.” for “injection.”

[6] = 100 μM donor, PBS buffer pH 5.0, 6.0, 7.4, 8.0, time-dependent

Row | SMILES | myocardial infarct size [1] | reduction of infarct size per area-at-risk (INF/AAR) [1] | H2S release [2, 6] | H2S release under weak acidic pH [2] | H2S release under neutral and weak basic pH [2] | circulating free H2S level [3] | H2S production in cells (WSP-5 fluorescence) (HeLa cells) | protection against A/R-induced cellular damage (cell viability) (H9c2 cardiomyoblasts) | circulating cardiac troponin I level [4] | H2O2 median lethal concentration (H9c2 cardiomyoblasts; H9c2 cells, A/R treatment together with H2O2 (100-400 μM)) | H2S release ([2]; pH 5) | interventricular septum thickness (IVSd, IVSs) [5] | left ventricular dilatation (LVEDD, LVESD) [5] | left ventricular ejection fraction (LVEF) and fractional shortening (LVFS) [5] | left ventricular posterior wall thickness (LVPWd, LVPWs) [5]
1 | O=C([O-])C(Cc1ccccc1)NP([O-])(=S)c1ccccc1.[Li+].[Li+] (centres unmarked) [JK-2] | significantly reduced | 55% and 56% | much-enhanced H2S releasing ability | much faster release | slow and sustained H2S release | significant increase; also recorded: significantly higher | strong fluorescence | significant attenuation of A/R induced damage | significantly lowered; also recorded: significantly reduced | – | – | – | – | – | –
2 | OO [H2O2, reference compound] | – | – | – | – | – | – | – | – | – | approximately 400 μM | – | – | – | – | –
3 | O=C([O-])C1CCCN1P([O-])(=S)c1ccccc1.[Li+].[Li+] (centres unmarked) [JK-5] | – | – | – | – | – | – | – | – | – | – | not to release H2S at all | – | – | – | –
4 | O=C(O)CNP(O)(=S)c1ccccc1 (centres unmarked) [JK-1] | significantly reduced | 43% and 64% | much-enhanced H2S releasing ability | only released H2S under weak acidic pH | barely detectable H2S | – | much weaker fluorescence | significant attenuation of A/R induced damage | significantly lowered; also recorded: significantly reduced | – | – | significantly preserved IVSd and IVSs | significantly reduced left ventricular dilatation | significantly preserved both LVEF and LVFS | significantly preserved left ventricular wall thickness
